Assay results taken from patent publication US20040138104A1, “Peptides” (priority 2003, published 2004).
Like-named read-outs stand apart in the source and are kept apart here.

Tests used:
PTB1B = molecular target: T1, PTB1B (Homo sapiens, UniProt P18031); type: biochemical; settings: read-out: IC50 Values in μM Against Various Enzymes: PTB1B
T1 sequence (P18031 1-435): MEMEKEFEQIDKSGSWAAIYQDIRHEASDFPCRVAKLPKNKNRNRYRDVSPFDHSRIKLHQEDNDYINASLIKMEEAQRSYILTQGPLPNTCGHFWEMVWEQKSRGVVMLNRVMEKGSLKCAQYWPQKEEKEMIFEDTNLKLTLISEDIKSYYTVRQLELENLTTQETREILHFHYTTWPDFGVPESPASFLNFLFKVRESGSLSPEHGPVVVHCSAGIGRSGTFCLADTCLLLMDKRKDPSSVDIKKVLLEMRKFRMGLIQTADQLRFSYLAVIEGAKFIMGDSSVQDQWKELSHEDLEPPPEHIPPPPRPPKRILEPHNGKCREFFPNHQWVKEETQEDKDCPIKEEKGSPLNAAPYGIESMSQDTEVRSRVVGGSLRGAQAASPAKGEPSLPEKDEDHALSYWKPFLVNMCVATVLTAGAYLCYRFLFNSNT

YopH = YopH (Yersinia pestis, UniProt O68720); experiment: biochemical
YopH, sequence (O68720 1-468): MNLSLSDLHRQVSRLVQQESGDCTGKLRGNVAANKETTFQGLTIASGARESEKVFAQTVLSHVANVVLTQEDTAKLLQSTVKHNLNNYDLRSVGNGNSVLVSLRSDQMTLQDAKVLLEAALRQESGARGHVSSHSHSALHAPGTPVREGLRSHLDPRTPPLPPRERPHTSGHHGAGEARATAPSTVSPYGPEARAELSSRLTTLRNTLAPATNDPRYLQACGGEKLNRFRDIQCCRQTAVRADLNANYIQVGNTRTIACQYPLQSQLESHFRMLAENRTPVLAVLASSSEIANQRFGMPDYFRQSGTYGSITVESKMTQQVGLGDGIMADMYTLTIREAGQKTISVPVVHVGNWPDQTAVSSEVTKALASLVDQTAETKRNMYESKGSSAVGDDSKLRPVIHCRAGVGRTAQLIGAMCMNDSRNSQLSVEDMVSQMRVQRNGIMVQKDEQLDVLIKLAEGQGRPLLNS

[1] = read-out: IC50 Values in μM Against Various Enzymes: YopH

| SMILES | IC50 (PTB1B) [µM] | IC50 (YopH; [1]) [µM] | IC50 (YopH) [µM] |
| --- | --- | --- | --- |
| CC(C)C[C@H](NC(=O)[C@H](Cc1ccc(OCC(=O)O)cc1)NC(=O)[C@H](CCC(=O)OCc1ccccc1)NC(=O)OCC1c2ccccc2-c2ccccc21)C(N)=O [TB 26] | 4.6 ± 2 | 2.8 ± 1.1 | – |
| CC(C)C[C@H](NC(=O)[C@H](Cc1ccc(OCC(=O)O)c(OCC(=O)O)c1)NC(=O)[C@H](CCC(=O)OCc1ccccc1)NC(=O)OCC1c2ccccc2-c2ccccc21)C(N)=O [TB 29] | 19.4 ± 3.6 | 19.4 ± 3.3 | – |
| CC(C)C[C@H](NC(=O)[C@H](Cc1ccc(C(F)(C(=O)O)C(=O)O)cc1)NC(=O)[C@H](CCC(=O)OCc1ccccc1)NC(=O)OCC1c2ccccc2-c2ccccc21)C(N)=O [TB 34] | – | – | 3 ± 0.7 |
| CC(C)C[C@H](NC(=O)[C@H](Cc1ccc(OCC(=O)O)cc1)NC(=O)[C@H](CCC(=O)OCc1ccccc1)NC(=O)OCc1ccccc1)C(N)=O [TB 39] | 72 ± 14 | 119 ± 14 | – |
| CC(C)C[C@H](NC(=O)[C@H](Cc1ccc(OCC(=O)O)cc1)NC(=O)[C@H](CCC(=O)OCc1ccccc1)NC(=O)OCCc1ccccc1)C(N)=O [TB 40] | – | – | 80 ± 8.5 |
